Assay results published in the NIST ThermoML archive (doi:10.1016/j.fluid.2018.02.009).
± gives the expanded uncertainty stated by the source.

Settings: Liquid, Closed cell (Static) method

O=C=O [carbon dioxide]
Settings	vapor or sublimation pressure [kPa]
213.22 K	410.4 ± 1.2
223.15 K	681.8 ± 2.4
243.13 K	1426.3 ± 2.5
263.13 K	2646.7 ± 4.3
273.22 K	3491.3 ± 5.4
283.15 K	4502.3 ± 7
299.22 K	6595 ± 10
